Source: patent publication US8148361B2, “Kinase inhibitors” (Bristol-Myers Squibb Company, priority 2006, dated 2012)

Molecular target: VEGFR-2 (Homo sapiens, UniProt P35968)
Assay: VEGFR-2 kinase assay
Type: biochemical
Details: poly glu/tyr substrate, 33P-ATP; read-out: VEGFR2 IC50
Description: 1. VEGFR-2 and FGFR-1 Kinase Assays:
Incubation mixtures employed for VEGFR-2 or FGFR-1 assay contain the synthetic substrate poly glu/tyr, (4:1), ATP, ATP-γ-^33P and buffer containing Mn^++ and/or Mg^++, DTT, BSA, and Tris buffer. The reaction is initiated by addition of enzyme and after 60 minutes at room temperature is terminated by the addition of 30% TCA to a final concentration of 15% TCA. Inhibitors are brought to 10 mM in 100% DMSO. Assays are prepared in a 96 well format in quadruplicate. Compounds are diluted 1:500 in 100% DMSO and then 1:10 in water for a final DMSO concentration of 10%. 10 μL are added to rows B-H in a 96 well format of 10% DMSO. 20 μl of compound is added to row A at a concentration 5 fold higher than running conditions. Ten μL are transferred to each row followed by six serial dilutions with mixing, and at row F 10 μL are discarded. Row G is a control with no compound and row H is no compound and no enzyme control. Enzyme and substrate are delivered using a Tomtec Quadra station.
Plates are covered with sticky plate tops, incubated at 27° C. for 60 minutes, and then acid precipitated with TCA for 20 minutes on ice. The precipitate is transferred to UniFilter-96, GF/C microplates using either a Tomtec or Packard FilterMate harvester. Activity is determined by quantitating the incorporated radioactivity using a Packard TopCount Microplate Scintillation Counter following the addition of Microscint-20 cocktail into each dried well of the UniFilter microplates.

Sequence of VEGFR-2 (P35968 20-1356): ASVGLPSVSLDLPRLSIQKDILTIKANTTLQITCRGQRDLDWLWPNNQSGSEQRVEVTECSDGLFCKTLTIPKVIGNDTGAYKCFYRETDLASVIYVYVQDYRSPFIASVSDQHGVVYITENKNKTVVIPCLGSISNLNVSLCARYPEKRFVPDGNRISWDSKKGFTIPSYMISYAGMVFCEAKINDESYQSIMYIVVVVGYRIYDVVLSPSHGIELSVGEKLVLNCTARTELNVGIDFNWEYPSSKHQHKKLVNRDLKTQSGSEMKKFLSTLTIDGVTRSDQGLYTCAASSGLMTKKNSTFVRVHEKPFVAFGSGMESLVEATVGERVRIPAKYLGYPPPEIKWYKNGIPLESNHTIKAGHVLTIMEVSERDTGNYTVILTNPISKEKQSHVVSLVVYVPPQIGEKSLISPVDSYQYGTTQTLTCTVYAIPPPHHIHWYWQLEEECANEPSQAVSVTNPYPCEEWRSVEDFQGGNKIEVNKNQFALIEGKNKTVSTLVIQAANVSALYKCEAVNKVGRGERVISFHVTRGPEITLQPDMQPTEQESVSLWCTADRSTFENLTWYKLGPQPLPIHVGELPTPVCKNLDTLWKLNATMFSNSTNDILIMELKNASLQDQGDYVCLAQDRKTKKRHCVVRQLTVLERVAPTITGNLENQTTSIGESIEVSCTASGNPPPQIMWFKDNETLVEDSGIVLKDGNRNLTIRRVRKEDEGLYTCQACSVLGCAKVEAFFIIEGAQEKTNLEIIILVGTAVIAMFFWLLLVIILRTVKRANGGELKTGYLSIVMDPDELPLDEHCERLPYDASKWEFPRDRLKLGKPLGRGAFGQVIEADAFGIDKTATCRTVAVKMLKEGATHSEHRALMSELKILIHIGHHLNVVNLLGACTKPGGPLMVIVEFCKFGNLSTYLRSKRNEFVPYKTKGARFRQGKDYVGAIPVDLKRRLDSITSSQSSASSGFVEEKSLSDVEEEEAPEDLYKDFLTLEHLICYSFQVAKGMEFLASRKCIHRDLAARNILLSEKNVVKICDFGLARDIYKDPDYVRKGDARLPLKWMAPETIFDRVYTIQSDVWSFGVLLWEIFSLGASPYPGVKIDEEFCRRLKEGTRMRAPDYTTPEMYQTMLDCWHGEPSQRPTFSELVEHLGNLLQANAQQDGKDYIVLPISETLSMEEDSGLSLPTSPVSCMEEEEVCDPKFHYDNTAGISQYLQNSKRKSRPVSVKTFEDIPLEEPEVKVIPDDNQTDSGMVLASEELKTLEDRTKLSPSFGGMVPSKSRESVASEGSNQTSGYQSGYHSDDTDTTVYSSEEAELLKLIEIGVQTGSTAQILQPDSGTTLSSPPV

| IC50 | SMILES |
| --- | --- |
| 0.103 µM | O=C(NC1CC1)c1ccc(F)c(CNc2cnc3[nH]c(-c4ccccc4)cc3c2)c1 [Example 3, N-cyclopropyl-4-fluoro-3-((2-phenyl-1H-pyrrolo[2,3-b]pyridin-5-ylamino)methyl)benzamide] |
| 0.146 µM | O=C(NC1CC1)c1ccc(F)c(NCc2cnc3[nH]c(C4CC4)cc3c2)c1 [Example 4, N-cyclopropyl-3-((2-cyclopropyl-1H-pyrrolo[2,3-b]pyridin-5-yl)methylamino)-4-fluorobenzamide] |
| 0.017 µM | O=C(NC1CC1)c1ccc(F)c(NCc2cnc3[nH]c(-c4cccnc4)cc3c2)c1 [Example 5, N-cyclopropyl-4-fluoro-3-((2-(pyridin-3-yl)-1H-pyrrolo[2,3-b]pyridin-5-yl)methylamino)benzamide] |
| 0.016 µM | O=C(NC1CC1)c1ccc(F)c(NCc2cnc3[nH]c(-c4ccccc4)cc3c2)c1 [Example 1, N-Cyclopropyl-4-fluoro-3-{(2-phenyl-1H-pyrrolo[2,3-b]pyridin-5-yl)methylamino}benzamide] |
| 0.064 µM | O=C(NC1CC1)c1cc(NCc2cnc3[nH]c(-c4ccccc4)cc3c2)c(F)cc1F [Example 2, N-cyclopropyl-2,4-difluoro-5-((2-phenyl-1H-pyrrolo[2,3-b]pyridin-5-yl)methylamino)benzamide] |

Molecular target: T1, IGF-1 receptor tyrosine kinase (Homo sapiens, UniProt P08069)
T1 construct: host or cells: baculovirus expression system
Assay: IGF-receptor tyrosine kinase assay
Type: biochemical
Details: poly(Glu/Tyr) substrate, 25 μM ATP, baculovirus expressed enzyme; read-out: IGF1R IC50
Description: 3. IGF-Receptor Tyrosine Kinase Assay
The IGF-1 receptor tyrosine kinase was assayed using the synthetic polymer poly(Glu/Tyr) (Sigma Chemicals) as a phosphoacceptor substrate. Each reaction mixture consisted of a total volume of 50 ul and contained 125 ng of baculovirus expressed enzyme, 2.5 μg of poly(Glu/Tyr), 25 μM of ATP, and 0.1 μCi of [γ-^33P]ATP. The mixtures also contained 20 mM MOPS, pH 7.0, 5 mM MnCl2, 0.5 mM […], and 0.1 mg/ml bovine serum albumin. The reaction mixtures were incubated at 30° C. for 45 minutes and kinase activity was determined by quantitation of the amount of radioactive phosphate transferred to the poly(Glu/Tyr) substrate. Incorporation was measured by the addition of cold trichloroacetic acid (TCA) precipitation of the proteins which were collected onto GF/C unifilter plates (Packard Instrument Co., Meriden, Conn.) using a Filtermate universal harvester and the filters were quantitated using a TopCount 96-well liquid scintillation counter (Packard Instrument Co., Meriden, Conn.). Compounds were dissolved in dimethyl sulfoxide to a concentration of 10 mM and were evaluated at six concentrations, each in triplicate.

T1 sequence (P08069 31-1367): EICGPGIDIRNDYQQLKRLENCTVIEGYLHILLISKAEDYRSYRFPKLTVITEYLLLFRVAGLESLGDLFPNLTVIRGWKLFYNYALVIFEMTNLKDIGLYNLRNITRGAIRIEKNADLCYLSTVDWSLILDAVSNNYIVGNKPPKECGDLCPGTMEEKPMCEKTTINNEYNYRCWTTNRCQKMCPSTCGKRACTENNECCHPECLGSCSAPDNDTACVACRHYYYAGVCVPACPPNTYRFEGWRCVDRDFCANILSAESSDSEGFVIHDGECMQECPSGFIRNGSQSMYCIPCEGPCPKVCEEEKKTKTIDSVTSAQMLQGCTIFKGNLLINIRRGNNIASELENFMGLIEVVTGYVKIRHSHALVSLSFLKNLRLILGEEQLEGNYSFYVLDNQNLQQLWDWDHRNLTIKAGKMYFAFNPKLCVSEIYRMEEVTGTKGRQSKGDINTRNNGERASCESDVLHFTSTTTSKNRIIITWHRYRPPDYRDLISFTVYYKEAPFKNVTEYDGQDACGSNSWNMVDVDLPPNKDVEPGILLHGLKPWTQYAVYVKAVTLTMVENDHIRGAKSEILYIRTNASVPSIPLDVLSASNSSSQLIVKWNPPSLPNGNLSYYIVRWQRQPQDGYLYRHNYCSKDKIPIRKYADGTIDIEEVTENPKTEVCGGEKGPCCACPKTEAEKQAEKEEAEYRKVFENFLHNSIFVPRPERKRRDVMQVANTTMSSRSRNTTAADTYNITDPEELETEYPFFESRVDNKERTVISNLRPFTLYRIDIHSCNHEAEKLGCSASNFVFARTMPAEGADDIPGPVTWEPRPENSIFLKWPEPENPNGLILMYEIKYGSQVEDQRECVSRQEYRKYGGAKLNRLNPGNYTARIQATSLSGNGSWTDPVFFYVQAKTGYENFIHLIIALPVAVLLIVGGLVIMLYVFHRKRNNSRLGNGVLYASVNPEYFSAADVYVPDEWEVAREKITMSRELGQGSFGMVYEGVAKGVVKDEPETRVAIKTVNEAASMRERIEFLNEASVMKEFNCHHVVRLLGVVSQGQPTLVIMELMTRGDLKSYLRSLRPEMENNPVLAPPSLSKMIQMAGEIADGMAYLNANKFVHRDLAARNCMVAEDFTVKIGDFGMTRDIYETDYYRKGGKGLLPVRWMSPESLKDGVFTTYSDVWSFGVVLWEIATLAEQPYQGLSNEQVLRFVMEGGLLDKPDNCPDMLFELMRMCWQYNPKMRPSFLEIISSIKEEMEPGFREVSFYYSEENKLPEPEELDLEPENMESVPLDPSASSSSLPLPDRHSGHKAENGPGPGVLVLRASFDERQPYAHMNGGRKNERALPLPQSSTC

| IC50 | SMILES |
| --- | --- |
| 0.199 µM | O=C(NC1CN(S(=O)(=O)c2ccc(F)cc2)C1)c1cccc(Sc2cnc3[nH]c(-c4ccccc4)cc3c2)c1 [Example 13, N-(1-(4-fluorophenylsulfonyl)azetidin-3-yl)-3-(2-phenyl-1H-pyrrolo[2,3-b]pyridin-5-ylthio)benzamide] |
